# Results taken from US20220324835A1 (Nurix Therapeutics, Inc., priority 2018, published 2022).
# Legend:
# [1] = test system: IL-2, IFNγ, and TNFα in plasma; assay: In vivo activity: plasma cytokine levels (IL-2, IFNγ, TNFα) in mice stimulated with anti-CD3 antibody; details: 2 μg anti-CD3 antibody, 8 hours post-stimulation
# Protocol: (§1) A method of determining the pharmacodynamic profile of Cbl-b inhibitors was performed by dosing strains of mice with competent immune systems such as C57BL/6 or BALB/c with a Cbl-b inhibitor. The Cbl-b inhibitor was dissolved in a suitable formulation and administered by one of various routes such as intravenous (IV), intraperitoneal (IP), subcutaneous (SC), or oral (PO), at a suitable dose level and frequency (e.g. twice per day BID or thrice per day TID) as informed by prior pharmacokinetic and tolerability studies. Following administration of the Cbl-b inhibitor, T-cells and indirectly other immune cells (e.g. via cytokine production) were stimulated in vivo by administration of an anti-CD3 antibody or antigen-binding fragment thereof in PBS at defined amounts such as 2 μg or 10 μg per animal by routes such as IV or IP (See Hirsh et al., J. Immunol., 1989; Ferran, et al., Eur. J. Immunol., 1990). Additional study control arms included groups of mice treated with a vehicle formulation alone (i.e., formulation without the Cbl-b inhibitor and anti-CD3 antibody), a formulation containing the Cbl-b inhibitor alone, a formulation containing the anti-CD3 antibody alone, PBS alone, or combinations of these agents. The level of immune activation was then assessed by analysis of plasma cytokine levels and/or expression of activation markers on immune cells (e.g. T-cells). Blood or lymphoid organs (e.g. spleen) were collected at defined time points (e.g. 8 hours or 24 hours). Blood samples were processed to collect plasma for determination of cytokine levels using standard methods known in the art. Cytokines measured included IL-2, IFNγ, and TNFα. Additional blood samples and lymphoid tissues were processed for flow cytometric analysis of immune cells (e.g. T-cells) using standard methods to determine expression of cell type-specific markers and activation markers such as CD25 and/or CD69. Augmentation of immune stimulation by Cbl-b inhibitor administration was assessed by comparing the relative concentrations of cytokines in plasma, or the expression levels of activation markers on immune cells between appropriate groups (e.g. mice treated with Cbl-b inhibitor and 2 μg anti-CD3 antibody versus mice treated with vehicle and 2 μg anti-CD3 antibody).
# (§2) Cbl-b inhibitors were tested to determine their ability to induce or enhance the level of cytokines (e.g. IL-2, IFNγ, and TNFα) in blood obtained from treated mice stimulated with an anti-CD3 antibody, which is indicative of modulation of the immune response. Cbl-b inhibitors were also tested to determine their ability to induce or enhance the expression of cell surface markers on T-cells (e.g. CD25 and/or CD69) isolated from treated mice stimulated with an anti-CD3 antibody, which is indicative of modulation of the immune response.
# (§3) Readouts were reported as fold change over baseline. The fold change was calculated from the mean value of mice treated with Cbl-b inhibitor and 2 μg anti-CD3 antibody, with the baseline defined as the mean value of mice treated with vehicle and 2 μg anti-CD3 antibody. Increases in the percentage of cells with surface expression of CD25 on CD4+ T-cells or CD8+ T-cells greater than 1.5-fold over baseline at 24 hours were considered a positive response. Increases in the plasma concentration of IL-2, IFNγ, and TNFα greater than 1.5-fold over baseline at 8 hours post-stimulation were also considered a positive response (Table 8). Fold changes were ranked into bins according to their readouts as follows: A indicates >2.50, B indicates 2.01-2.50, C indicates 1.51-2.00, D indicates 1.00-1.50, and E indicates <1.00.
# [2] = test system: T-cells; assay: In vivo activity: CD25 expression on CD4+ or CD8+ T-cells of mice stimulated with anti-CD3 antibody; details: 2 μg anti-CD3 antibody, 24 hours
# Protocol: as §1, §2, §3
# [3] = test system: primary human B cells; assay: B cell activation assay (CD69 on anti-IgM stimulated B cells); type: cell-based; details: AUC of dose response curve (10 μM to 1 nM) of CD69 MFI normalized to DMSO control
# Protocol: Peripheral blood mononuclear cells (PBMC) were obtained either: 1) by using Ficoll-Paque™ (GE Healthcare) for separation of peripheral blood hematopoietic cells from buffy coats of healthy human donors; or 2) directly from LeukoPak donations. Human primary B cells were isolated from the PBMCs utilizing negative selection with commercial kits following the manufacturer's protocol (StemCells Catalog #17954) to yield >95% CD20+ cells assessed by flow cytometry. Primary human B cells were plated at 0.7-1×10^5 per well in a 96-well plate with Cbl-b inhibitors over a dose ranging from 10 μM to 1 nM and incubated at 37° C. 5% CO2, with a final DMSO concentration of <0.5%. Cells were stimulated with anti-IgM for 20 hours at 37° C. 5% CO2. Surface activation markers on mature CD20^+ IgD^+ B cells were monitored by FACS using an anti-CD69 antibody (BD Biosciences).
# Cbl-b inhibitors were tested to determine their ability to induce or enhance surface expression of cell surface markers on B cells (e.g., CD69), which is indicative of B cell activation.
# Readouts were reported as area under curve (AUC) of the dose response curve of CD69 mean fluorescence intensity (MFI) normalized to the DMSO control. Baseline for this study was the measurement obtained from primary human B cells treated with DMSO in the presence of 2.5 μg/mL of anti-IgM-F(ab′)2. […] Compounds were ranked into bins according to their readouts as follows: A indicates ≤0.5, B indicates 0.5-1.00, C indicates 1.01-1.50, and D indicates ≥1.51.
Compound,IFNγ plasma concentration ([1]; 90 mpk IP BID),IL-2 plasma concentration ([1]; 90 mpk IP BID),TNFα plasma concentration ([1]; 90 mpk IP BID),IFNγ plasma concentration ([1]; 90 mpk IP TID),IL-2 plasma concentration ([1]; 90 mpk IP TID),TNFα plasma concentration ([1]; 90 mpk IP TID),CD4+ T-cell % CD25+ ([2]; 90 mpk IP BID),CD8+ T-cell % CD25+ ([2]; 90 mpk IP BID),CD4+ T-cell % CD25+ ([2]; 90 mpk IP TID),CD8+ T-cell % CD25+ ([2]; 90 mpk IP TID),CD69 MFI AUC [3]
"C[C@H](Sc1nncn1C)c1cccc(NC(=O)c2cccc(C(F)(F)F)n2)c1 [Compound 57a, (S)-N-(3-(1-((4-methyl-4H-1,2,4-triazol-3-yl)thio)ethyl)phenyl)-6-(trifluoromethyl)picolinamide]",D (D indicates 1.00-1.50),A (A indicates >2.50),A (A indicates >2.50),B (B indicates 2.01-2.50),A (A indicates >2.50),A (A indicates >2.50),D (D indicates 1.00-1.50),E (E indicates <1.00),D (D indicates 1.00-1.50),C (C indicates 1.51-2.00),B (B indicates 0.5-1.00)
"C[C@@H](Sc1nncn1C)c1cccc(NC(=O)c2cccc(C(F)(F)F)n2)c1 [Compound 57b, (R)-N-(3-(1-((4-methyl-4H-1,2,4-triazol-3-yl)thio)ethyl)phenyl)-6-(trifluoromethyl)picolinamide]",E (E indicates <1.00),E (E indicates <1.00),D (D indicates 1.00-1.50),E (E indicates <1.00),E (E indicates <1.00),E (E indicates <1.00),C (C indicates 1.51-2.00),E (E indicates <1.00),E (E indicates <1.00),D (D indicates 1.00-1.50),A (A indicates ≤0.5)
